Laboratory results published in patent publication US8883841B2, “Oncogenic ras-specific cytotoxic compound and methods of use thereof” (The Board of Regents of the University of Texas System, priority 2005, dated 2014).
pIC50: −log10 of the molar value.

Legend:
[1] = In vivo toxicity assay in tumor-bearing nude mice
SKOV3 = assay: Cell viability, SKOV3 ovary cancer cells; assay type: cell-based
Hey = assay: Cell viability, Hey ovary cancer cells; assay type: cell-based
Ovcar443 = assay: Cell viability, Ovcar443 ovary cancer cells; assay type: cell-based
[2] = Table 1, value is the negative log10 of mol/L

Structure (SMILES): O=Cc1cn(Cc2ccc(Cl)cc2)c2ccccc12 [Oncrasin K001, 1H-Indole-3-carboxaldehyde, 1-[(4-chlorophenyl)methyl]-(9CI)]
- serum ALT, AST, and creatinine levels ([1]; 2 days after the last treatment): within the normal range
- histopathologic examination of organs ([1]; lung, heart, stomach, small intestine, liver, spleen, pancreas, kidney): no significant lesions
- blood cell counts ([1]; red blood cells, white blood cells, platelets): all in the normal ranges
- body weights ([1]; vs solvent): No difference
- IC50 (−LogM) (H460 cells; H460, Lung): 6.6 −LogM
- concentration that effectively kills H460 cells (H460 cells; K-ras mutant lung cancer cells): 1 µM
- IC50 in H460 cells (H460 cells; [2]): 6.6
- effect on H460 cells (H460 cells; lung cancer cell line): highly effective
- pIC50 (H460 cells; read-out: IC50, H460 cells, K-Ras Q61H): 6.60
- IC50 (−LogM) (SKOV3): 5.8 −LogM
- IC50 (−LogM) (Hey): 4.6 −LogM
- time course of toxicity in T29Kt1 cells (T29Kt1 cells; 33 μM): time-dependent toxicity
- concentration that effectively kills T29K cells (T29Kt1 cells; K-ras mutant): 10 µM
- IC50 in T29k cells (T29Kt1 cells; [2]): 5.6
- pIC50 (T29Kt1 cells; read-out: IC50, T29Kt1 cells, dose-dependent cytotoxicity): 5.60
- selectivity for T29Kt1 (T29K) cells in dose-response study (T29Kt1 cells; vs T29 and T29Ht1, 0.1 μM to 33 μM): highly selective
- IC50 (−LogM) (Ovcar443): 4.5 −LogM
